# Activity calls are given as the source filed them. The calls are words filed in the database; no cut-off is given here.
# Key:
# [1] = system: LNCaP; test: Antiproliferative activity against human LNCaP cells with high PSMA expression assessed as effect on cell viability incubated for 72 hrs by MTT assay; assay type: functional, cell-based
# [2] = system: CWR22R; test: Antiproliferative activity against human 22Rv1 cells with high PSMA expression assessed as effect on cell viability incubated for 72 hrs by MTT assay; assay type: functional, cell-based; conditions: 22Rv1, 72 h
# [3] = system: PC-3; test: Antiproliferative activity against PSMA negative human PC-3 cells assessed as effect on cell viability incubated for 72 hrs by MTT assay; assay type: functional
# [4] = Antiproliferative activity against PSMA negative human RWPE-1 cells assessed as effect on cell viability incubated for 72 hrs by MTT assay; assay type: toxicity, cell-based; conditions: RWPE-1 cells (PSMA negative)
# [5] = biological target: Poly [ADP-ribose] polymerase 1 (Homo sapiens, UniProt P09874); test: Inhibition of PARP1 (unknown origin) by biotinylated NAD+-based luminescence assay
# Poly [ADP-ribose] polymerase 1, sequence (P09874 whole entry): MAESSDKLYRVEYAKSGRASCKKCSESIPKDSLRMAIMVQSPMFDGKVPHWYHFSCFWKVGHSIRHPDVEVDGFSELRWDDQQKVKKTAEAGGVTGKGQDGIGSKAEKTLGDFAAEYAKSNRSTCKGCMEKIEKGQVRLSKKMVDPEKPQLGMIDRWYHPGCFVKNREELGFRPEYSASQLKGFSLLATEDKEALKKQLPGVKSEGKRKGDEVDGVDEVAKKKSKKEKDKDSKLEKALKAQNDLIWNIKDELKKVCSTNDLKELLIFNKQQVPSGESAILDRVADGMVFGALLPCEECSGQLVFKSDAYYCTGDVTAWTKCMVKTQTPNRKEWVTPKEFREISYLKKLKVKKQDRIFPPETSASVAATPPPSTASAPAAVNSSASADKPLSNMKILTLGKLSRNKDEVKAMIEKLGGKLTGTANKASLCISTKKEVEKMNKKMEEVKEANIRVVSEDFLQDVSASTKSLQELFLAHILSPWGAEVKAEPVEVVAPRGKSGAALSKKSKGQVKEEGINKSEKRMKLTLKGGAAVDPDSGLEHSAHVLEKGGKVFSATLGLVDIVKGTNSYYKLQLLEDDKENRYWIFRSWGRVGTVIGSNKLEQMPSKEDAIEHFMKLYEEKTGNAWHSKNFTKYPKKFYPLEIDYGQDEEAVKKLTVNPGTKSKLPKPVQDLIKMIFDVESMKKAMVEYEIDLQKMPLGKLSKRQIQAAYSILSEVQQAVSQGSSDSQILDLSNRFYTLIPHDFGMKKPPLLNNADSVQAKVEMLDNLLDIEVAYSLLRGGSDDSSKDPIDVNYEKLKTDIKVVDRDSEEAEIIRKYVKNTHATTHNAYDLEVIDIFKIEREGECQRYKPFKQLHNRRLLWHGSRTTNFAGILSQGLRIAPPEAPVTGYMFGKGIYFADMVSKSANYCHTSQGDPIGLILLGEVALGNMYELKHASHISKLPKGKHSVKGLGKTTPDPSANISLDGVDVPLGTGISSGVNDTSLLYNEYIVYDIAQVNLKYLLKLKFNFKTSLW
# [6] = system: CWR22R; test: Induction of DNA damage in human 22Rv1 cells assessed as increase in number of gamma-H2AX foci incubated for 12 hrs by DAPI staining based immunofluorescence analysis; assay type: functional, cell-based; conditions: dose 50-200 µM
# [7] = system: CWR22R; test: Induction of apoptosis in human 22Rv1 cells assessed as increase in cleaved caspase-3 expression at 100 uM incubated for 72 hrs by Western blot analysis; assay type: functional, cell-based
# [8] = system: CWR22R; test: Antiproliferative activity against human 22Rv1 cells assessed as reduction in cell viability at 125 uM in presence of DUPA; assay type: functional, cell-based
# [9] = Drug uptake in PSMA positive human 22Rv1 cells at 10 uM measured after 1 to 6 hrs by LC-MS/MS analysis; assay type: ADME, cell-based; conditions: cwr22r, time 1-6 hrs
# [10] = Drug uptake in PSMA positive human 22Rv1 cells at 10 uM measured after 1 to 6 hrs in presence of PSMA ligand DUPA by LC-MS/MS analysis; assay type: ADME, cell-based; conditions: cwr22r, time 1-6 hrs
# [11] = Half-life in Sprague-Dawley rat at 100 mg/kg, po measured after 24 hrs by UPLC-MS/MS analysis; assay type: ADME, organism-based; conditions: in vivo
# [12] = Tmax in Sprague-Dawley rat at 100 mg/kg, po measured after 24 hrs by UPLC-MS/MS analysis; assay type: ADME, organism-based; conditions: in vivo
# [13] = Cmax in Sprague-Dawley rat at 100 mg/kg, po measured after 24 hrs by UPLC-MS/MS analysis; assay type: ADME, organism-based; conditions: in vivo
# [14] = AUC (0 to t) in Sprague-Dawley rat at 100 mg/kg, po measured after 24 hrs by UPLC-MS/MS analysis; assay type: ADME, organism-based; conditions: in vivo
# [15] = AUC (0 to infinity) in Sprague-Dawley rat at 100 mg/kg, po measured after 24 hrs by UPLC-MS/MS analysis; assay type: ADME, organism-based; conditions: in vivo
# [16] = Oral bioavailability in Sprague-Dawley rat at 100 mg/kg measured after 24 hrs by UPLC-MS/MS analysis; assay type: ADME, organism-based; conditions: in vivo
# [17] = Half-life in Sprague-Dawley rat at 5 mg/kg, iv measured after 24 hrs by UPLC-MS/MS analysis; assay type: ADME, organism-based; conditions: in vivo
# [18] = C0 in Sprague-Dawley rat at 5 mg/kg, iv measured after 24 hrs by UPLC-MS/MS analysis; assay type: ADME, organism-based; conditions: in vivo
# [19] = Volume of distribution in Sprague-Dawley rat at 5 mg/kg, iv measured after 24 hrs by UPLC-MS/MS analysis; assay type: ADME, organism-based; conditions: in vivo
# [20] = Clearance in Sprague-Dawley rat at 5 mg/kg, iv measured after 24 hrs by UPLC-MS/MS analysis; assay type: ADME, organism-based; conditions: in vivo
# [21] = AUC (0 to t) in Sprague-Dawley rat at 5 mg/kg, iv measured after 24 hrs by UPLC-MS/MS analysis; assay type: ADME, organism-based; conditions: in vivo
# [22] = AUC (0 to infinity) in Sprague-Dawley rat at 5 mg/kg, iv measured after 24 hrs by UPLC-MS/MS analysis; assay type: ADME, organism-based; conditions: in vivo
# [23] = Subacute toxicity in male ICR mouse assessed as decrease in body weight at 175 mg/kg, po administered via gavage for 30 days; assay type: organism-based; conditions: in vivo, 720 h, time 30 day
# [24] = Subacute toxicity in male ICR mouse assessed as decrease in red blood cells at 175 mg/kg, po administered via gavage for 30 days by blood routine test; assay type: organism-based; conditions: in vivo, 720 h, time 30 day
# [25] = Subacute toxicity in male ICR mouse assessed as decrease in hemoglobin at 175 mg/kg, po administered via gavage for 30 days by blood routine test; assay type: organism-based; conditions: in vivo, 720 h, time 30 day
# [26] = Subacute toxicity in male ICR mouse assessed as decrease in hematocrit at 175 mg/kg, po administered via gavage for 30 days by blood routine test; assay type: organism-based; conditions: in vivo, 720 h, time 30 day
# [27] = Subacute toxicity in male ICR mouse assessed as decrease in WBC at 175 mg/kg, po administered via gavage for 30 days by blood routine test; assay type: organism-based; conditions: in vivo, 720 h, time 30 day
# [28] = Subacute toxicity in male ICR mouse assessed as decrease in neutrophils at 175 mg/kg, po administered via gavage for 30 days by blood routine test; assay type: organism-based; conditions: in vivo, 720 h, time 30 day
# [29] = Subacute toxicity in male ICR mouse assessed as decrease in lymphocytes at 175 mg/kg, po administered via gavage for 30 days by blood routine test; assay type: organism-based; conditions: in vivo, 720 h, time 30 day
# [30] = system: CWR22R; test: Antitumor activity against human 22Rv1 cells xenografted in male BALB/c nude mouse at 175 mg/kg administered via gavage; assay type: functional, organism-based
# [31] = Toxicity in male BALB/c nude mouse xenografted with human 22Rv1 cells assessed as decrease in body weight at 175 mg/kg administered via gavage; assay type: organism-based; conditions: in vivo, po
# [32] = system: CWR22R; test: Antitumor activity against human 22Rv1 cells xenografted in male BALB/c nude mouse assessed as tumor growth inhibition at 175 mg/kg administered via gavage relative to control; assay type: functional; conditions: 22Rv1, po, read-out: TGI
smiles,measurement,setting,value
O=C(O)CC[C@H](NC(=O)N[C@@H](CCCCNC(=O)CCC(=O)N1CCN(C(=O)c2cc(Cc3n[nH]c(=O)c4ccccc34)ccc2F)CC1)C(=O)O)C(=O)O,IC50,[1],93.9 µM
same,IC50,[2],133 µM
same,CC50,[3],> 1000 µM
same,CC50 at 72 h,[4],> 1000 µM
same,IC50,[5],0.0019 µM
same,Activity,[6],Dose-dependent-effect
same,Activity,[7],Active; Similar To Olaparib-Treated Group
same,Activity,[8],Not active; Drug Mode Of Action Appears To Be Via Binding To Psma Receptor
same,Drug uptake,[9],Active
same,Drug uptake,[10],Not_active
same,half-life,[11],54.8 min
same,Tmax,[12],60 min
same,Cmax,[13],5260 ng/mL
same,AUC(0-t) at 24 h,[14],16300 ng·h/mL
same,AUC(0-inf),[15],16500 ng·h/mL
same,bioavailability,[16],11%
same,half-life,[17],22.7 min
same,C0 at 24 h,[18],12800 ng/mL
same,Vd,[19],0.391 L/kg
same,clearance,[20],12 mL/min/kg
same,AUC(0-t) at 24 h,[21],7300 ng·h/mL
same,AUC(0-inf),[22],7460 ng·h/mL
same,Activity,[23],Non-toxic
same,Activity,[24],Non-toxic
same,Activity,[25],Non-toxic
same,Activity,[26],Non-toxic
same,Activity,[27],Non-toxic
same,Activity,[28],Non-toxic
same,Activity,[29],Non-toxic
same,Activity,[30],Active
same,Activity,[31],Non-toxic
same,inhibition in vivo at 175 mg/kg,[32],69%
